Paper PMC11696576, “Next generation thiazolyl ketone inhibitors of cytosolic phospholipase A2 α for targeted cancer therapy” (Nature Communications, 2025)

Tested on: CCRF-CEM cells
Test: RNA-Seq differential gene expression
Format: cell-based, human
Details: for log2(fold change): Upregulated
Description: Given our findings that the sensitivity to AVX420 was dependent on increased intracellular ROS, we hypothesized that activation of the integrated stress response (ISR) by oxidative damage may be the cause of cell death. The ISR converges on deactivation of the eukaryotic translation initiation factor 2 alpha (eIF2α) to globally suppress translation, with the exception of selected genes (e.g., activating transcription factor (ATF) 4) which activate robust transcriptional changes to restore homeostasis and promote survival or, when oxidative damage is sustained, to initiate programmed cell death. To investigate this, we used a combination of RNA-SEQ and Ribosomal RNA-SEQ (Ribo-SEQ) to measure the global transcriptional and translational response to AVX420 in CCRF-CEM cells. […] Translational effects were determined by calculating the proportion of total transcript associated with the ribosome (ribosomal occupancy (RO)). […] As a positive control we treated cells for 1 hour with the dual mTOR inhibitor Torin-1, which reduced the RO of 20 mRNAs.
CCRF-CEM cells seeded at 200,000 viable cells/mL were treated with AVX420 (0.5 μM) or DMSO (0.1%) and harvested after 1 hour, 6 h, or 16 h. Torin-1 (100 nM) treatment was harvested after 1 h. The flasks were placed on ice and the cell suspensions were transferred to 50 mL conical tubes for centrifugation (405 × g, 4 °C, 5 min). […] The cells were collected and centrifuged at 405 x g for 5 min at 4 °C. The supernatant was discarded, and the cells were suspended in 1 mL of DPBS before centrifugation at 405 x g for 5 min at 4 °C. Resulting cell pellets were snap-frozen in liquid nitrogen and stored at −80 °C. RNA-Seq and ribosome-associated RNA(Ribo)-Seq was performed by Eclipsebio (eclipsebio.com). Protocols are available in the Supplemental Methods section. […]
correction using the Benjamini-Hochberg correction to control the rate of false-posi-tives. Gene sets with false discovery rate <20% were considered significant. […]
RNA-Seq and ribosome-associated RNA(Ribo)-Seq
RNA-Seq and ribosome-associated RNA(Ribo)-Seq was performed by Eclipsebio (eclipsebio.com). The cytosolic fraction of crosslinked cell pellets was isolated and RNA quality and quantity was assessed before 250 ng of the isolated RNA was used to build 3’ RNA-Seq libraries. 10 µg RNA was used for immunoprecipitation (IP) for Ribo-SEQ analysis. Non-crosslinked RNA was removed from the IP through multiple wash steps and the remaining RNA was released via proteinase digestion. RNA from both sources was fragmented and libraries were generated from the poly(A) tails. Li-braries were sequenced on a NextSeq 2 000. After sequencing, samples were pro-cessed with Eclipsebio’s proprietary analysis pipeline (v1). Unique molecular identifi-ers (UMIs) were pruned from read sequences using umitools (v1.1.1). Next 3' adapt-ers were trimmed from reads using cutadapt (v3.2). Reads were then mapped to a cus-tom, curated database of repetitive elements and rRNA sequences. All non -repeat mapped reads were mapped to the genome hg38 using STAR (v2.7.7a) and PCR du-plicates were removed using umi_tools (v1.1.1). Gene coverage was cal culated using Eclipsebio’s proprietary feature counting algorithm and ribosome occupancy was cal-culated by dividing coverage in the ribosome -associated (IP) library by the RNA -Seq library. Differentially expressed and occupied genes were identified using D ESeq2.
Significant differential expression was defined using a cutoff on p.value < 0.01 (after multiple testing adjustment, "padj" metric) and requiring the fold change in gene cov-erage to be greater than 1 or less than -1 (log2 scale). Significance of the ribosomal occupancy (RO) difference was determined by extending DESeq2 models to include RO fold change as an interaction between the experimental condition and the library type. Genes with a RO log2 (fold change) > 1 or < -1 and an adjusted p-value < 0.01 were considered significant. […]

CCCCCCCOc1ccc(OCC(=O)c2nc(C(=O)OC)cs2)cc1 [GK420]
log2(fold change) (ADM2, 6 h): 1.49
log2(fold change) (ATF3, 6 h): 1.05
changes in gene expression (CCRF-CEM, 0.5 μM, 1 hour): No significant changes
log2FC ADM2 (CCRF-CEM, 0.5 μM, 6 h): 1.49
log2FC ATF3 (CCRF-CEM, 0.5 μM, 6 h): 1.05
log2FC CHAC1 (CCRF-CEM, 0.5 μM, 6 h): 2.25
log2FC DDIT3 (CCRF-CEM, 0.5 μM, 6 h): 1.15
log2FC ENSG00000260498 (CCRF-CEM, 0.5 μM, 6 h): 1.44
log2FC GPT2 (CCRF-CEM, 0.5 μM, 6 h): 1.24
log2FC L3MBTL2-AS1 (CCRF-CEM, 0.5 μM, 6 h): 2.13
log2FC LINC-PINT (CCRF-CEM, 0.5 μM, 6 h): 1.34
log2FC LY9 (CCRF-CEM, 0.5 μM, 6 h): 1.05
log2FC SESN2 (CCRF-CEM, 0.5 μM, 6 h): 1.59
log2FC SLC6A9 (CCRF-CEM, 0.5 μM, 6 h): 1.25
log2FC SLC7A11 (CCRF-CEM, 0.5 μM, 6 h): 1.57
log2FC ULBP1 (CCRF-CEM, 0.5 μM, 6 h): 1.2
log2FC VLDLR (CCRF-CEM, 0.5 μM, 6 h): 1.27
log2FC VLDLR-AS1 (CCRF-CEM, 0.5 μM, 6 h): 1.02
log2FC YAP1 (CCRF-CEM, 0.5 μM, 6 h): 1.04
number of genes upregulated (CCRF-CEM, 0.5 μM, 6 h): 16
number of differentially expressed genes (DEGs) (CCRF-CEM, 0.5 μM, 16 h): 82
log2FoldChange ADM2 (CCRF-CEM, 0.5 μM, 16 hours): 2.31
log2FoldChange AQP3 (CCRF-CEM, 0.5 μM, 16 hours): -1.1
log2FoldChange B4GALNT1 (CCRF-CEM, 0.5 μM, 16 hours): 2.37
log2FoldChange CAMKK1 (CCRF-CEM, 0.5 μM, 16 hours): -1.18
log2FoldChange CAMKV (CCRF-CEM, 0.5 μM, 16 hours): -1.07
log2FoldChange CHAC1 (CCRF-CEM, 0.5 μM, 16 hours): 3.51
log2FoldChange DUSP2 (CCRF-CEM, 0.5 μM, 16 hours): -1.04
log2FoldChange ENSG00000260498 (CCRF-CEM, 0.5 μM, 16 hours): 2.28
log2FoldChange GPT2 (CCRF-CEM, 0.5 μM, 16 hours): 3.48
log2FoldChange HRG (CCRF-CEM, 0.5 μM, 16 hours): 2.92
log2FoldChange IFRD1 (CCRF-CEM, 0.5 μM, 16 hours): 2.08
log2FoldChange L3MBTL2-AS1 (CCRF-CEM, 0.5 μM, 16 hours): 3.01
log2FoldChange LINC02970 (CCRF-CEM, 0.5 μM, 16 hours): 3.49
log2FoldChange LRRTM1 (CCRF-CEM, 0.5 μM, 16 hours): -1.11
log2FoldChange MIR22HG (CCRF-CEM, 0.5 μM, 16 hours): 2.58
log2FoldChange MYT1 (CCRF-CEM, 0.5 μM, 16 hours): -1.13
log2FoldChange NDUFA4L2 (CCRF-CEM, 0.5 μM, 16 hours): 2.19
log2FoldChange NMRAL2P (CCRF-CEM, 0.5 μM, 16 hours): 2.89
log2FoldChange NOL3 (CCRF-CEM, 0.5 μM, 16 hours): 2.29
log2FoldChange OSGIN1 (CCRF-CEM, 0.5 μM, 16 hours): 3.08
log2FoldChange PNMA1 (CCRF-CEM, 0.5 μM, 16 hours): -1.02
log2FoldChange RAG1 (CCRF-CEM, 0.5 μM, 16 hours): -1.12
log2FoldChange RFPL1S (CCRF-CEM, 0.5 μM, 16 hours): 2.61
log2FoldChange RPL23AP42 (CCRF-CEM, 0.5 μM, 16 hours): -2.03
log2FoldChange SESN2 (CCRF-CEM, 0.5 μM, 16 hours): 2.53
log2FoldChange SLC6A9 (CCRF-CEM, 0.5 μM, 16 hours): 2.93
log2FoldChange SLC7A11 (CCRF-CEM, 0.5 μM, 16 hours): 3.42
log2FoldChange THOC3 (CCRF-CEM, 0.5 μM, 16 hours): -1.74
log2FoldChange TM6SF1 (CCRF-CEM, 0.5 μM, 16 hours): 2.49
log2FoldChange VLDLR-AS1 (CCRF-CEM, 0.5 μM, 16 hours): 2.44
log2(fold change) (CHAC1, 6 h): 2.25
log2(fold change) (DDIT3, 6 h): 1.15
log2(fold change) (ENSG00000260498, 6 h): 1.44
log2(fold change) (GPT2, 6 h): 1.24
log2(fold change) (L3MBTL2-AS1, 6 h): 2.13
log2(fold change) (LINC-PINT, 6 h): 1.34
log2(fold change) (LY9, 6 h): 1.05
log2(fold change) (SESN2, 6 h): 1.59
log2(fold change) (SLC6A9, 6 h): 1.25
log2(fold change) (SLC7A11, 6 h): 1.57
log2(fold change) (ULBP1, 6 h): 1.2
log2(fold change) (VLDLR, 6 h): 1.27
log2(fold change) (VLDLR-AS1, 6 h): 1.02
log2(fold change) (YAP1, 6 h): 1.04
